# Measured values published in PubChem BioAssay (NCI).
# Where “and” joins values, the source holds several entries; their conditions need not be identical. Identical values can stand only once.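 Test compounds were applied to cells in 96-well plates for 48 hours at 5 doses. At the GI50, growth is halved. TGI: concentration producing complete growth inhibition.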
# Legend:
# Experiment in all cases: DTP human tumour cell line panel, 48 h
# [1] = system: HCC-2998 colon
# [2] = system: TK-10 renal
# [3] = system: CAKI-1 renal
# [4] = system: MALME-3M melanoma
# [5] = system: OVCAR-4 ovarian
# [6] = system: MDA-MB-435
# [7] = system: U251 CNS
# [8] = system: KM12 colon
# [9] = system: MOLT-4 leukemia
# [10] = system: SK-OV-3 ovarian
SMILES,GI50 [1] [µM],TGI [1],GI50 [2] [µM],TGI [2],GI50 [3] [µM],TGI [3],GI50 [4] [µM],TGI [4],GI50 [5] [µM],TGI [5],GI50 [6] [µM],TGI [6] [µM],GI50 [7] [µM],TGI [7],GI50 [8] [µM],TGI [8] [µM],GI50 [9] [µM],TGI [9],GI50 [10] [µM],TGI [10]
O=C1C(=O)c2c(nc3ccc(C(F)(F)F)cn23)-c2ccccc21,0.499,0.988 µM,0.738,1.24 µM,0.162,0.297 µM,0.158,0.295 µM,0.137,0.271 µM,0.179,0.324,0.185,0.377 µM,0.288,0.995,0.237,0.602 µM,0.551,1.12 µM
COC(=O)C(C(=O)C(=O)Nc1c(C)cccc1C(C)(C)C)c1nc2ccc(Cl)cc2[nH]c1=O (configuration not stated),–,> 100 µM,–,> 100 µM,–,> 100 µM,–,> 100 µM,–,> 100 µM,–,> 100,–,> 100 µM,–,> 100,–,> 100 µM,–,> 100 µM
COc1cc(/C=N/NC(=O)c2cnn3c2NC(c2ccccc2)C3)ccc1OC1CCCC1 (configuration not stated),3.19,19.7 µM,4.06,16.3 µM,0.556,5.01 µM,1.02,4.28 µM,2.01,7.75 µM,0.258,1.28,0.92,5.91 µM,0.39,4.46,1.23,11.1 µM,1.57,8.49 µM
COc1ccc(-n2c(=S)sc3c(Cl)nc(C)nc32)c(OC)c1,16.2,31.1 µM,4.66,18.7 µM,6.16,19.3 µM,2.23,6.23 µM,4.73,15.6 µM,2.14,3.93,1.91,3.65 µM,3.33,11.5,2.12,5.48 µM,14.3,27.3 µM
CCOC(=O)Nc1ccc2nc(-c3cscn3)[nH]c2c1,18.5,> 100 µM,28.6,> 100 µM,5.63,> 100 µM,1.75,> 100 µM,48.9,> 100 µM,0.398,1.93,4.05,> 100 µM,2.05,> 100,5.31,> 100 µM,3.61,29.8 µM
Clc1ccccc1C(Nc1cnccn1)Nc1cnccn1,–,> 100 µM,–,> 100 µM,–,> 100 µM,–,> 100 µM,–,> 100 µM,–,> 100,–,> 100 µM,–,> 100,–,> 100 µM,–,> 100 µM
CN1CCN(C2=NC(=O)/C(=C\c3ccc(N(C)C)cc3)S2)CC1,> 100,> 100 µM,> 100,> 100 µM,> 100,> 100 µM,> 100,> 100 µM,> 100,> 100 µM,> 100,> 100,> 100,> 100 µM,> 100,> 100,42.2,> 100 µM,> 100,> 100 µM
CCOc1c(Br)cc(Br)cc1C=C(C#N)C#N,–,> 10 µM,–,> 10 µM,–,–,–,> 10 µM,–,> 10 µM,–,> 10,–,> 10 µM,–,> 10,–,> 10 µM,–,> 10 µM
O=C1NC(=NCCc2ccc(Cl)cc2)S/C1=C\c1ccc2ncccc2c1,> 25,> 25 µM,–,–,> 19.5,> 25 µM,> 25,> 25 µM,8.94,> 25 µM,10,> 25,20.8,> 25 µM,> 23,> 25,18.8,> 25 µM,17.5,> 25 µM
N#C/C(=C\c1ccc2[nH]ccc2c1)C(=O)NCCCCNC(=O)/C(C#N)=C/c1ccc2[nH]ccc2c1,–,> 31.6 µM,–,> 31.6 µM,–,> 31.6 µM,–,> 31.6 µM,–,> 31.6 µM,–,> 10,–,> 31.6 µM,–,> 31.6,–,> 31.6 µM,–,> 31.6 µM
OCc1ccc(N(Cc2ccc(F)cc2)Cc2ccc(F)cc2)cc1Cl,14.3,30.8 µM,2.08,11.2 µM,1.7,5.87 µM,18.4,35.4 µM,3.01,14.7 µM,10.2,22.4,5.5,19.4 µM,10.5,23.8,7.84,30.1 µM,13.6,26.5 µM
Cn1c(COC(=O)NCCc2ccccn2)nc2c(N3CCOCC3)nc(Cl)nc21,1.76,3.57 µM,1.72,3.34 µM,0.974,2.16 µM,1.77,3.38 µM,1.62,3.63 µM,1.46,3.46,1.63,3.34 µM,1.8,4.75,2.41,8.09 µM,12,24.3 µM
C[C@@]1(F)[C@H](O)[C@@H](CO)O[C@H]1n1ccc(=O)[nH]c1=O,> 100,> 100 µM,> 100,> 100 µM,> 100,> 100 µM,> 100,> 100 µM,> 100,> 100 µM,> 100,> 100,> 100,> 100 µM,> 100,> 100,> 100,> 100 µM,> 100,> 100 µM
[N-]=[N+]=CC(=O)CCC(N)C(=O)O (configuration not stated),62.7,> 250 µM,35.6,244 µM,10.9,84.5 µM,7.27,> 250 µM,4.2,> 206 µM,7.2,> 250,6.59,> 250 µM,3.14,> 250,0.468,–,–,34.3 µM
CCCCNC(c1ccc(Cl)cc1)C(O)c1ccc(Cl)cc1 (configuration not stated),1.83,3.85 µM,2.2,6.99 µM,1.82,6.63 µM,1.52,3.08 µM,2.87,13.5 µM,1.61,3.57,1.75,3.65 µM,2.04,5.34,1.67,6.67 µM,5.72,20 µM
COc1ccc2c(c1)C(=O)c1c-2c(OCCCN(C)C)nc2cc(Br)ccc12,10.3,22.7 µM,4.17,13.8 µM,11,23.5 µM,1.87,4.64 µM,1.96,5.17 µM,5.45,18.1,2.1,4.22 µM,11.4,24.3,3.09,18.7 µM,7.28,22.9 µM
C[C@@H]1C[C@@H]([C@H](O)CC2CC(=O)NC(=O)C2)C(=O)[C@@H](C)C1,0.325,7.93 µM and 3.63 µM,0.22,2.39 µM and 1.01 µM,0.188,5.17 µM and 1.83 µM,0.235,4.7 µM and 3.5 µM,0.299,4.97 µM and 1.2 µM,0.233,4.09,0.237,2.67 µM and 12.6 µM,0.215,–,0.139,2.06 µM and 0.518 µM,0.275,5.31 µM and 12.2 µM
CCC[CH2][Sn-]([CH2]CCC)([CH2]CCC)[O]C(=O)C(C)C,0.164,0.329 µM,0.141,0.272 µM,0.122,0.279 µM,0.0229,0.204 µM,0.0538,0.196 µM,0.153,0.289,0.144,0.294 µM,0.0347,0.145,0.102,0.348 µM,0.151,0.293 µM
N=C1CCCC1C(=S)SCCC(N)=O (configuration not stated),–,> 100 µM,–,> 100 µM,–,> 100 µM,–,> 100 µM,–,> 100 µM,–,> 100,–,> 100 µM,–,> 100,–,> 100 µM,–,> 100 µM
COC1=CC(=O)O/C1=C(\OC)C1OC1c1ccccc1 (configuration not stated),–,> 100 µM,–,> 100 µM,–,> 100 µM,–,> 100 µM,–,> 100 µM,–,> 100,–,> 100 µM,–,> 100,–,> 100 µM,–,> 100 µM
CC(C)C[C@@H](N)[C@@H](O)C(=O)N[C@H](C(=O)N[C@H](C(=O)N[C@@H](CC(=O)O)C(=O)O)C(C)C)C(C)C,> 20,> 20 µM,> 20,> 20 µM,> 20,> 20 µM,> 20,> 20 µM,> 20,> 20 µM,> 20,> 20,> 20,> 20 µM,> 20,> 20,> 20,> 20 µM,> 20,> 20 µM
O=S(=O)(NC1=NCCN1C(=S)SN1CCn2c1nsc2=S)c1ccc(Cl)cc1,11,23.6 µM,12.3,25.6 µM,6.49,27.7 µM,4.75,18.1 µM,9.6,44.2 µM,3.02,10.5,10.9,24.4 µM,15.9,33.6,3.56,21.7 µM,–,–
Nc1cc2c3c(cccc3c1)C(=O)N(CCN1CCCC1)C2=O,2.78,15 µM,5.49,33.7 µM,1.43,5.83 µM,2.49,7.68 µM,4.75,42.5 µM,4.06,14.8,3.4,> 100 µM,3.66,51.2,1.74,> 46.4 µM,2.16,22.7 µM
COc1ccc2[nH]c(C(=O)N3CCN(C(=O)OCc4ccc5c(Cl)cc(Cl)c(O)c5n4)CC3)cc2c1,1.7,3.32 µM,1.42,2.72 µM,0.357,1.65 µM,1.59,3.02 µM,1.53,3.07 µM,1.2,2.72,1.48,2.81 µM,1.69,3.68,0.356,1.79 µM,5.36,17.6 µM
O=C1c2cccc3cccc(c23)C(=O)N1CCCCCN1CCN(CCN=c2cc3n(-c4ccc(Cl)cc4)c4ccccc4nc-3cc2Nc2ccc(Cl)cc2)CC1,8.93,31.4 µM,25,> 50 µM,6.33,20.5 µM,20.8,> 50 µM,6.22,17.3 µM,9.21,21.4,14.2,40.3 µM,11.9,46.3,–,–,> 50,> 50 µM
Oc1ccc(Cl)cc1C=Nc1cnc2ccccc2c1,–,–,–,> 100 µM,–,> 100 µM,–,> 100 µM,–,> 100 µM,–,> 100,–,> 70.6 µM,–,> 100,–,47.2 µM,–,> 100 µM
CCN(CC)C(=S)SSC(C)C,16.8,31.1 µM,20.3,38 µM,5.99,19.2 µM,13.7,30 µM,13.4,26.2 µM,16.1,49.5,13.8,32.1 µM,–,–,3.76,25.4 µM,30.3,95.7 µM
COc1cc2c(cc1OCCNC(=O)/C=C1\C[C@H]3C=Nc4cc(OCc5ccccc5)c(OC)cc4C(=O)N3C1)N=C[C@@H]1CCCN1C2=O,–,–,7.07,36.7 µM,32.3,> 100 µM,2.2,6.69 µM,19.7,65.5 µM,2.97,9.79,2.82,8.35 µM,9.31,28.8,–,–,25.1,73.1 µM
COc1cc(O)ccc1C(=S)SC,–,–,–,> 100 µM,–,> 100 µM,–,> 100 µM,–,> 100 µM,–,> 100,–,> 100 µM,–,> 100,–,92.2 µM,–,> 100 µM
